According to US20070128217A1 (priority 2003, published 2007):

Tests used:
[1] = test system: rabbit serum obtained by immunizing a rabbit with the SARS-CoV strain Frankfurt 1; format: binding; design: Binding of a rabbit serum to linear peptides / Binding of a rabbit serum to looped peptides / Rabbit serum linear peptides / Rabbit serum looped peptides / Binding of a rabbit serum to linear peptides of protein N of SARS-CoV Urbani (Rabbit serum linear peptides) / Binding of a rabbit serum to looped/cyclic peptides of protein N of SARS-CoV Urbani (Rabbit serum looped peptides): unit not given here
[2] = test system: control sera (pooled serum of ten healthy LUMC hospital workers; commercial negative donor pooled serum from the Dutch bloodbank); format: binding, human; design: Binding of Control serum LUMC to linear peptides / Binding of Control serum Blood-bank to linear peptides / Binding of Control serum LUMC to looped peptides / Binding of Control Serum Blood-Bank to Looped peptides / Binding of Control serum LUMC to linear peptides of the protein M of SARS-CoV Urbani / Binding of Control serum Blood-bank to linear peptides of the protein M of SARS-CoV Urbani / Binding of Control serum LUMC to looped peptides of the protein M of SARS-CoV Urbani / Binding of Control Serum Blood-Bank to Looped peptides of the protein M of SARS-CoV Urbani: unit not given here
[3] = test system: antibodies in sera from SARS patients (sera 1a, 1b, 2, 6, 37, 62, London, SARS-yellow, SARS-green); format: binding, human; design: Binding of serum 6 to linear peptides of protein X1 of SARS-CoV Urbani / Binding of serum 37 to linear peptides of protein X1 of SARS-CoV Urbani / Binding of serum 6 to looped/cyclic peptide (PEPSCAN-ELISA) / Binding of serum 37 to looped/cyclic peptide (PEPSCAN-ELISA) / Binding of serum 37 to looped/cyclic peptides of protein X1 of SARS-CoV Urbani / Binding of serum 6 to linear peptides of protein X2 / Binding of serum 37 to linear peptides of protein X2 / Binding of serum 37 to looped/cyclic peptides of protein X2 of SARS-CoV Urbani / Binding of serum 6 to linear peptides of protein M of SARS-CoV Urbani / Binding of serum 37 to linear peptides of protein M of SARS-CoV Urbani / Binding of serum 6 to looped/cyclic peptides of protein M of SARS-CoV Urbani / Binding of serum 37 to looped/cyclic peptides of protein M of SARS-CoV Urbani / Binding of serum 6 to linear peptides of protein X3 of SARS-CoV Urbani / Binding of serum 37 to linear peptides of protein X3 of SARS-CoV Urbani / Binding of serum 37 to looped/cyclic peptides of protein X3 of SARS-CoV Urbani / Binding of serum 6 to linear peptides of protein X4 of SARS-CoV Urbani / Binding of serum 37 to linear peptides of protein X4 of SARS-CoV Urbani / Binding of serum 37 to looped/cyclic peptides of protein X4 of SARS-CoV Urbani / Binding of serum 6 to linear peptides of protein X5 of SARS-CoV Urbani / Binding of serum 37 to linear peptides of protein X5 of SARS-CoV Urbani / Binding of serum 37 to looped/cyclic peptides of protein X5 of SARS-CoV Urbani / Binding of serum 6 to linear peptides of protein N of SARS-CoV Urbani / Binding of serum 37 to linear peptides of protein N of SARS-CoV Urbani / Binding of serum 6 to linear peptide (PEPSCAN-ELISA) / Binding of serum 1a to looped/cyclic peptides of protein N of SARS-CoV Urbani / Binding of serum 1b to looped/cyclic peptides of protein N of SARS-CoV Urbani / Binding of serum 2 to looped/cyclic peptides of protein N of SARS-CoV Urbani / Binding of serum 6 to looped/cyclic peptides of protein N of SARS-CoV Urbani / Binding of serum 37 to looped/cyclic peptides of protein N of SARS-CoV Urbani / Binding of serum 62 to looped/cyclic peptides of protein N of SARS-CoV Urbani / Binding of serum London to looped/cyclic peptides of protein N of SARS-CoV Urbani / Binding of serum SARS-green to looped/cyclic peptides of protein N of SARS-CoV Urbani: unit not given here

Sequence: NVPLRGTIVTRPLME
- Rabbit serum linear peptides [1]: 0.3
- Rabbit serum looped peptides [1]: 0.5
- Binding of Control Serum Blood-Bank to Looped peptides of the protein M of SARS-CoV Urbani [2]: 0.7
- Binding of Control serum Blood-bank to linear peptides of the protein M of SARS-CoV Urbani [2]: 0.6
- Binding of Control serum LUMC to linear peptides of the protein M of SARS-CoV Urbani [2]: 0.4
- Binding of Control serum LUMC to looped peptides of the protein M of SARS-CoV Urbani [2]: 0.9
- Binding of serum 1a to linear peptides of protein M of SARS-CoV Urbani [3]: 0.8
- Binding of serum 1b to linear peptides of protein M of SARS-CoV Urbani [3]: 0.6
- Binding of serum 2 to linear peptides of protein M of SARS-CoV Urbani [3]: 0.4
- Binding of serum 6 to linear peptides of protein M of SARS-CoV Urbani [3]: 0.3
- Binding of serum 37 to linear peptides of protein M of SARS-CoV Urbani [3]: 0.7
- Binding of serum 62 to linear peptides of protein M of SARS-CoV Urbani [3]: 0.8
- Binding of serum London to linear peptides of protein M of SARS-CoV Urbani [3]: 0.3
- Binding of serum SARS-green to linear peptides of protein M of SARS-CoV Urbani [3]: 0.4
- Binding of serum SARS-yellow to linear peptides of protein M of SARS-CoV Urbani [3]: 0.1
- Recognition of the peptide by sera of SARS-CoV infected individuals, and form (linear, looped/cyclic) in which it is recognized [3]: recognized in looped/cyclic form

Sequence: CWKCKSKNPLLYDAN
- Binding of a rabbit serum to linear peptides [1]: 0.1
- Binding of a rabbit serum to looped peptides [1]: 0.5
- Binding of Control Serum Blood-Bank to Looped peptides [2]: 0.7
- Binding of Control serum Blood-bank to linear peptides [2]: 0.7
- Binding of Control serum LUMC to linear peptides [2]: 0.8
- Binding of Control serum LUMC to looped peptides [2]: 0.7
- Binding of serum 1a to looped/cyclic peptide (PEPSCAN-ELISA) [3]: 0.7
- Binding of serum 1b to looped/cyclic peptide (PEPSCAN-ELISA) [3]: 0.6
- Binding of serum 2 to looped/cyclic peptide (PEPSCAN-ELISA) [3]: 0.5
- Binding of serum 6 to looped/cyclic peptide (PEPSCAN-ELISA) [3]: 0.4
- Binding of serum 37 to looped/cyclic peptide (PEPSCAN-ELISA) [3]: 0.7
- Binding of serum 62 to looped/cyclic peptide (PEPSCAN-ELISA) [3]: 0.6
- Binding of serum London to looped/cyclic peptide (PEPSCAN-ELISA) [3]: 0.3
- Binding of serum SARS-green to looped/cyclic peptide (PEPSCAN-ELISA) [3]: 0.2
- Binding of serum SARS-yellow to looped/cyclic peptide (PEPSCAN-ELISA) [3]: 0.6
- Recognition of the peptide by sera of SARS-CoV infected individuals, and form (linear, looped/cyclic) in which it is recognized [3]: recognized in linear form

Sequence: LVFLWLLWPVTLACF
- Rabbit serum linear peptides [1]: 0.3
- Rabbit serum looped peptides [1]: 0.3
- Binding of Control Serum Blood-Bank to Looped peptides of the protein M of SARS-CoV Urbani [2]: 0.7
- Binding of Control serum Blood-bank to linear peptides of the protein M of SARS-CoV Urbani [2]: 0.5
- Binding of Control serum LUMC to linear peptides of the protein M of SARS-CoV Urbani [2]: 0.2
- Binding of Control serum LUMC to looped peptides of the protein M of SARS-CoV Urbani [2]: 0.7
- Binding of serum 1a to linear peptides of protein M of SARS-CoV Urbani [3]: 0.7
- Binding of serum 1a to looped/cyclic peptides of protein M of SARS-CoV Urbani [3]: 0.6
- Binding of serum 1b to linear peptides of protein M of SARS-CoV Urbani [3]: 0.5
- Binding of serum 1b to looped/cyclic peptides of protein M of SARS-CoV Urbani [3]: 0.5
- Binding of serum 2 to linear peptides of protein M of SARS-CoV Urbani [3]: 0.4
- Binding of serum 2 to looped/cyclic peptides of protein M of SARS-CoV Urbani [3]: 0.7
- Binding of serum 6 to linear peptides of protein M of SARS-CoV Urbani [3]: 0.6
- Binding of serum 6 to looped/cyclic peptides of protein M of SARS-CoV Urbani [3]: 0.6
- Binding of serum 37 to linear peptides of protein M of SARS-CoV Urbani [3]: 0.6
- Binding of serum 37 to looped/cyclic peptides of protein M of SARS-CoV Urbani [3]: 0.7
- Binding of serum 62 to linear peptides of protein M of SARS-CoV Urbani [3]: 0.8
- Binding of serum 62 to looped/cyclic peptides of protein M of SARS-CoV Urbani [3]: 0.7
- Binding of serum London to linear peptides of protein M of SARS-CoV Urbani [3]: 0.7
- Binding of serum London to looped/cyclic peptides of protein M of SARS-CoV Urbani [3]: 0.2
- Binding of serum SARS-green to linear peptides of protein M of SARS-CoV Urbani [3]: 0.2
- Binding of serum SARS-green to looped/cyclic peptides of protein M of SARS-CoV Urbani [3]: 0.3
- Binding of serum SARS-yellow to linear peptides of protein M of SARS-CoV Urbani [3]: 0.1
- Binding of serum SARS-yellow to looped/cyclic peptides of protein M of SARS-CoV Urbani [3]: 0.4
